What all share (assay type): cell-based
Assay [1] has as its system HL-60 human promyelocytic leukemia cells. The assay can be described thus: Monocytic differentiation (NBT), HL-60. As to conditions: HL-60, 0.1 μM. On the procedure:
HL-60 human promyelocytic and U937 promonocytic leukemia cells were treated with the drugs at 0.1 μM or vehicle (negative control or 12-O-tetradecanoylphorbol-13-acetate (TPA) (positive control). Media were changed every 72 h and test substances added fresh every day. Differentiation toward monocytes-like morphology and NBT-reduction has been assessed after 5 and 7 days. Cells (2×106) were washed with PBS four times and resuspended in 200 μL of NBT solution (4 mg/mL) in water. After the addition of 200 ul of TPA solution (2 ug/ml) in PBS cells were incubated at 37° C. for 60 min in 24-well plates. Cell differentiation was assessed by intracellular blue formazan deposits. The NBT positive and negative cells were scored under light microscopy examination (40×) with a minimum of 200 cells scored.
For spectrophotometric analysis the cells were washed twice with buffer containing cold bovine serum albumin solution (17 mg/mL BSA, 137 mmol/L, NaCl, 5 mmol/L, KCl, 0.8 mmol/L, MgSO4, […], HEPES, pH7.4) to remove unreacted NBT, and the insoluble formazan deposits in the resulting pellet were solubilized in 1 mL of a mixture containing 90% DMSO, 0.1% SDS and 0.01 mmol/L NaOH by vigorous vortexing. The samples were centrifuged 5 min at 1500 g to remove the cellular debris, and then the absorbance of supernatants was measured at 715 nm. Data are expressed as change in A715/106 cells.

Assay [2] deals with human osteosarcoma cell line MG-63. Put plainly: Proliferation of MG-63 osteosarcoma cells. The method, then: Cells were seeded in 96-well plate and incubated with 20-hydroxycholecalciferol in DMEM medium containing 5% FBS for 48 h (FIG. 25A) or 72 h (FIG. 25C) or for 24 h after a 12 h synchronization in serum free medium (FIG. 25D). […] was added for a final 18 h (FIGS. 25A, 25D) or 12 h (FIG. 25C) of incubation or cells were assessed with sulforhodamine assay (FIG. 25C). Data is shown as mean±SEM (n=5; FIG. 24C) or mean±SEM (n=6; FIGS. 24A, 24C, 24D) and was analyzed using GraphPrism 4.0.

The subject of assay [3] is SKMEL-188 human melanoma cells. The assay can be described thus: Proliferation (DNA synthesis) of SKMEL-188. The following applies: SKMEL-188, 72 h. On the procedure: To measure DNA synthesis, keratinocytes, melanoma or prostate cancer cells were plated in 96-well plates. After overnight incubation tested compounds were added to the medium to achieve final concentrations 10^−7-10^−10 [M]. 100 μl of medium per well containing vitamin D3 compound was added to the cells. After 36 hours of incubation [3H]-thymidine (specific activity 88.0 Ci/mmol; Amersham Biosciences, Picataway, N.Y., USA) was added at 1 μCi/mL medium. After 12 hours, media were discarded, cells detached with trypsin and harvested on a glass fiber filter (Packard, Meriden, Calif., USA). 3H-radioactivity was measured with a beta counter (Direct Beta-Counter Matrix 9600; Packard).
HaCaT keratinocytes were an incubated for 48 h (FIG. 48A) or 72 h (FIG. 48B) in the presence of graded concentrations of 20(OH)D2 and/or 1,25(OH)2D3. […] Data are shown as mean±SD (n 3); *, p<0.05; **, p<0.01.

The structures appear in SMILES notation.

With `C=C1CC[C@H](O)C/C1=C/C=C1\CCC[C@]2(C)[C@@H](C(C)=O)CC[C@@H]12` [pD3, (5Z,7E)-3β-hydroxy-9,10-secopregna-5,7,10(19)-trien-20-one], the “monocytic differentiation (NBT staining)” value in assay [1] was “induce monocytic differention”.
In general, EC50 refers to the concentration needed to bring the measured effect to its halfway point. The low end stands for greater potency, the high end for weaker potency. In the case of `C=C1CC[C@H](O)C/C1=C/C=C1\CCC[C@@]2(C)[C@H]1CC[C@@H]2[C@@](C)(O)CCCC(C)C` [20(OH)D3, (5Z,7E)-9,10-secocholesta-5,7,10(19)-triene-3β,20-diol], in assay [2], the response was half-maximal at 0.57 µM (EC50).
With `C=C1/C(=C\C=C2/CCC[C@]3(C)[C@@H]([C@H](C)CCCC(C)(C)O)CC[C@@H]23)C[C@@H](O)C[C@@H]1O` [1α,25-dihydroxycholecalciferol, (5Z,7E)-9,10-secocholesta-5,7,10(19)-triene-1α,3β,25-triol, reference compound], in assay [3], the proliferation result is reported as “Dose dependent inhibition of the proliferation”.
